Experimental data published in article PMC4965013, “Open Source Drug Discovery with the Malaria Box Compound Collection for Neglected Diseases and Beyond” (PLoS Pathogens, 2016).

Legend:
[1] = system: P. falciparum M17 aminopeptidase; set-up: method as in ref [23] (a number printed in a supplementary file, which may have a reference list of its own: not looked up in the article's list); conditions: ref [23]; cited from earlier work
[2] = system: P. falciparum M1 aminopeptidase; set-up: method as in ref [23] (a number printed in a supplementary file, which may have a reference list of its own: not looked up in the article's list); conditions: ref [23]; cited from earlier work
[3] = system: PfCDPK1, PfPK6, PfCK2, PfGSK3, PfCLK1, Pfmap2, PfPK7, PfNek2, PfNek4, FIKK4.2, FIKK10.2, PfCK1, PfPK5; assay: Thermal Shift Assay on recombinant Pf kinases; type: binding, P. falciparum; conditions: 2 µM kinase, 5 molar excess of compound
[4] = system: P. falciparum; assay: EC50 listed in S2 Table Metabolomics (used to set the concentration tested); type: cell-based; conditions: Plasmodium falciparum; EC50 used for Factor_XEC50 in metabolomics; read-out: EC50_nM
[5] = system: P. falciparum 3D7 trophozoites; assay: Metabolomic fingerprint profiling LC-MS; type: cell-based, Plasmodium falciparum; set-up: UDP-D-glucose / ADP-D-glucose: unit not given here; conditions: for Acetyllysine / N-acetyl-L-ornithine / N-carbamoyl-L-aspartate / NADPH / dAMP / dCMP / dTDP / dTMP / dTTP / dihydroorotate / orotate / DLH / DLS/SDL/SID / PD / PEE / PVNF / 3-phosphoglycerate / ADP-D-glucose / ATP / CDP / D-sedoheptulose-1/7-phosphate / FAD / GMP / NAD+ / NADP+ / Octoluse Bisphosphate / Pyroglutamic acid / UDP-D-glucose / UDP-D-glucuronate / UDP-N-acetyl-glucosamine / UDP / UMP / UTP / a-ketoglutarate / citrate/isocitrate / cytidine / dATP / dGMP/AMP / fumarate / glucose-1/6-phosphate / glycerate / guanine / guanosine / hypoxanthine / indole / inosine / nicotinate / ornithine / phosphoenolpyruvate / pyruvate / ribose-phosphate / sarcosine/alanine / sn-glycerol-3-phosphate / succinate/methylmalonic acid / uridine / xanthosine: S2 Table Metabolomics; for Acetyllysine: metabolite Acetyllysine; for N-acetyl-L-ornithine: metabolite N-acetyl-L-ornithine; for N-carbamoyl-L-aspartate: metabolite N-carbamoyl-L-aspartate; for NADPH: metabolite NADPH; for dAMP: metabolite dAMP; for dCMP: metabolite dCMP; for dTDP: metabolite dTDP; for dTMP: metabolite dTMP; for dTTP: metabolite dTTP; for dihydroorotate: metabolite dihydroorotate; for orotate: metabolite orotate; for DLH: peptide DLH; for DLS/SDL/SID: peptide DLS/SDL/SID; for PD: peptide PD; for PEE: peptide PEE; for PVNF: peptide PVNF; for 3-phosphoglycerate: metabolite 3-phosphoglycerate; for ADP-D-glucose: metabolite ADP-D-glucose; for ATP: metabolite ATP; for CDP: metabolite CDP; for CDP / D-sedoheptulose-1/7-phosphate / GMP / Octoluse Bisphosphate / UDP / UMP / UTP / citrate/isocitrate / dGMP/AMP / fumarate / glucose-1/6-phosphate / glycerate / guanine / guanosine / inosine / pyruvate / sarcosine/alanine / succinate/methylmalonic acid / uridine / xanthosine: change in metabolite level after compound treatment; for D-sedoheptulose-1/7-phosphate: metabolite D-sedoheptulose-1/7-phosphate; for FAD: metabolite FAD; for GMP: metabolite GMP; for NAD+: metabolite NAD+; for NADP+: metabolite NADP+; for Octoluse Bisphosphate: metabolite Octoluse Bisphosphate; for Pyroglutamic acid: metabolite Pyroglutamic acid; for UDP-D-glucose: metabolite UDP-D-glucose; for UDP-D-glucuronate: metabolite UDP-D-glucuronate; for UDP-N-acetyl-glucosamine: metabolite UDP-N-acetyl-glucosamine; for UDP: metabolite UDP; for UMP: metabolite UMP; for UTP: metabolite UTP; for a-ketoglutarate: metabolite a-ketoglutarate; for citrate/isocitrate: metabolite citrate/isocitrate; for cytidine: metabolite cytidine; for dATP: metabolite dATP; for dGMP/AMP: metabolite dGMP/AMP; for fumarate: metabolite fumarate; for glucose-1/6-phosphate: metabolite glucose-1/6-phosphate; for glycerate: metabolite glycerate; for guanine: metabolite guanine; for guanosine: metabolite guanosine; for hypoxanthine: metabolite hypoxanthine; for indole: metabolite indole; for inosine: metabolite inosine; for 2_3-Diphosphoglyceric acid / 4-phosphopantothenate / 6-phospho-D-gluconate / FMN / IMP / Pyrophosphate / Sedoheptoluse bisphosphate / cyclic-AMP / glutathione disulfide / lactate / myo-inositol: metabolite level change after treatment; for nicotinate: metabolite nicotinate; for ornithine: metabolite ornithine; for phosphoenolpyruvate: metabolite phosphoenolpyruvate; for pyruvate: metabolite pyruvate; for ribose-phosphate: metabolite ribose-phosphate; for sarcosine/alanine: metabolite sarcosine/alanine; for sn-glycerol-3-phosphate: metabolite sn-glycerol-3-phosphate; for succinate/methylmalonic acid: metabolite succinate/methylmalonic acid; for uridine: metabolite uridine; for xanthosine: metabolite xanthosine
[6] = system: T. cruzi Tulahuen; conditions: ref [84]; read-out: Trypanosoma cruzi Tulahuen intracellular amastigotes in MRC5 cell line EC50; cited from earlier work
[7] = system: Atg8-Atg3; set-up: method as in ref [38] (a number printed in a supplementary file, which may have a reference list of its own: not looked up in the article's list); conditions: ref [38]; cited from earlier work

Compound: COc1cc(-c2nc(-c3ccccc3)c(-c3ccccc3)[nH]2)cc(OC)c1O [MMV020750]
- inhibition of M17 in words [1]: moderate competitive inhibitors
- inhibition of M1 in words [2]: moderate competitive inhibitors

Compound: O=C(Nc1ccc(Cl)c(Cl)c1)Nc1ccc(Cl)c(Cl)c1 [MMV665852]
- thermal shift (ΔTm) [3]: approximately 2 °C

Compound: Cc1ccc(Nc2nc(-c3ccccn3)cs2)cc1 [MMV007907]
- EC50 [4]: 350 nM
- Acetyllysine [5]: -0.3916
- N-acetyl-L-ornithine [5]: -0.2705
- N-carbamoyl-L-aspartate [5]: 0.4477
- NADPH [5]: 1.503
- dAMP [5]: -0.05008
- dCMP [5]: -0.3338
- dTDP [5]: -0.4245
- dTMP [5]: -0.5337
- dTTP [5]: 0.04887
- dihydroorotate [5]: 0.6541
- orotate [5]: 0.3803
- DLH [5]: -0.1443
- DLS/SDL/SID [5]: -0.03559
- PD [5]: -0.7075
- PEE [5]: -0.4235
- PVNF [5]: 0.2287
- 3-phosphoglycerate [5]: 0.2283
- ADP-D-glucose [5]: 0.03116
- ATP [5]: 0.08371
- CDP [5]: -0.4596
- D-sedoheptulose-1/7-phosphate [5]: -0.2275
- FAD [5]: 0.1798
- GMP [5]: 0.08425
- NAD+ [5]: 0.05427
- NADP+ [5]: -0.07684
- Octoluse Bisphosphate [5]: -0.09051
- Pyroglutamic acid [5]: 0.2079
- UDP-D-glucose [5]: -0.006173
- UDP-D-glucuronate [5]: 0.1137
- UDP-N-acetyl-glucosamine [5]: 0.001514
- UDP [5]: -0.4364
- UMP [5]: -0.7518
- UTP [5]: 0.01959
- a-ketoglutarate [5]: 0.135
- citrate/isocitrate [5]: 0.264
- cytidine [5]: 0.5859
- dATP [5]: -0.01819
- dGMP/AMP [5]: -0.2513
- fumarate [5]: -0.275
- glucose-1/6-phosphate [5]: -0.0724
- glycerate [5]: 0.1576
- guanine [5]: 0.3676
- guanosine [5]: 0.05893
- hypoxanthine [5]: 0.3977
- indole [5]: 0.3227
- inosine [5]: 0.344
- 2_3-Diphosphoglyceric acid [5]: -0.02223
- 4-phosphopantothenate [5]: 0.1153
- 6-phospho-D-gluconate [5]: 0.05128
- FMN [5]: 0.1654
- IMP [5]: -0.204
- Pyrophosphate [5]: 0.1304
- Sedoheptoluse bisphosphate [5]: -0.1099
- cyclic-AMP [5]: 0.1921
- glutathione disulfide [5]: -0.02789
- lactate [5]: 0.5292
- myo-inositol [5]: 0.004909
- nicotinate [5]: 0.3366
- ornithine [5]: 0.4059
- phosphoenolpyruvate [5]: 0.0562
- pyruvate [5]: 0.2612
- ribose-phosphate [5]: -0.06101
- sarcosine/alanine [5]: 0.3466
- sn-glycerol-3-phosphate [5]: 0.2394
- succinate/methylmalonic acid [5]: 0.03717
- uridine [5]: 0.4023
- xanthosine [5]: -0.2403
- EC50 [6]: 281 nM
- PPI inhibitors of Atg8-Atg3 interaction [7]: PPI inhibitors

Compound: Cc1cccc(-n2ncc3c(=O)[nH]c(-n4nc(C)cc4NC(=O)c4cc5ccccc5o4)nc32)c1 [MMV403679]
- thermal shift (ΔTm) [3]: approximately 2 °C

Compound: c1ccc(Cn2c(N=Nc3c(Nc4ccccc4)ccc4ccccc34)nc3ccccc32)cc1 [MMV666023]
- EC50 [4]: 36.8 nM
- Acetyllysine [5]: 0.5853
- N-acetyl-L-ornithine [5]: 0.306
- N-carbamoyl-L-aspartate [5]: 1.052
- NADPH [5]: -0.03386
- dAMP [5]: 0.6013
- dCMP [5]: -0.4205
- dTDP [5]: 0.3507
- dTMP [5]: 0.8714
- dTTP [5]: -0.2342
- dihydroorotate [5]: 1.31
- orotate [5]: -0.6227
- DLH [5]: -0.403
- DLS/SDL/SID [5]: -0.4178
- PD [5]: 0.5075
- PEE [5]: 0.08891
- PVNF [5]: -0.6731
- 3-phosphoglycerate [5]: 0.03204
- ADP-D-glucose [5]: -0.0135
- ATP [5]: -0.2499
- CDP [5]: 0.1136
- D-sedoheptulose-1/7-phosphate [5]: 0.2353
- FAD [5]: 0.06401
- GMP [5]: -0.6431
- NAD+ [5]: 0.6404
- NADP+ [5]: -0.009365
- Octoluse Bisphosphate [5]: -0.1419
- Pyroglutamic acid [5]: -0.07348
- UDP-D-glucose [5]: 0.05216
- UDP-D-glucuronate [5]: -0.02666
- UDP-N-acetyl-glucosamine [5]: 0.05509
- UDP [5]: 0.01697
- UMP [5]: -0.4292
- UTP [5]: -0.424
- a-ketoglutarate [5]: -0.06383
- citrate/isocitrate [5]: 0.04119
- cytidine [5]: 0.02473
- dATP [5]: 0.1105
- dGMP/AMP [5]: 0.2165
- fumarate [5]: 0.9246
- glucose-1/6-phosphate [5]: -0.4138
- glycerate [5]: 0.03697
- guanine [5]: -0.03399
- guanosine [5]: -0.2347
- hypoxanthine [5]: -0.04929
- indole [5]: 0.02614
- inosine [5]: -0.0248
- 2_3-Diphosphoglyceric acid [5]: 0.0759
- 4-phosphopantothenate [5]: 0.08574
- 6-phospho-D-gluconate [5]: 0.115
- FMN [5]: -0.1537
- IMP [5]: 0.4441
- Pyrophosphate [5]: 0.2082
- Sedoheptoluse bisphosphate [5]: 0.1996
- cyclic-AMP [5]: 0.01699
- glutathione disulfide [5]: 0.1273
- lactate [5]: -0.7178
- myo-inositol [5]: -0.07069
- nicotinate [5]: 0.08369
- ornithine [5]: 0.4536
- phosphoenolpyruvate [5]: -0.0645
- pyruvate [5]: -0.159
- ribose-phosphate [5]: -0.0332
- sarcosine/alanine [5]: -0.02978
- sn-glycerol-3-phosphate [5]: -0.2072
- succinate/methylmalonic acid [5]: 0.009689
- uridine [5]: -0.07701
- xanthosine [5]: -0.07995
- inhibition of M17 in words [1]: moderate competitive inhibitors
- inhibition of M1 in words [2]: moderate competitive inhibitors
